According to ChEMBL document CHEMBL5512658, “Development of benzimidazole-based compounds as novel capsid assembly modulators for the treatment of HBV infection” (Eur J Med Chem, 2024):
Active and inactive are the calls of the source. The rule behind the calls is not given here.

Key:
HepG2 = experiment: Cytotoxicity against human HepG2 cells measured after 3 days by resazurin staining based analysis; format: functional; settings: HepG2, 72 h, time 3 day
Hepatitis B virus [1] = experiment: Antiviral activity against HBV infected in human HePAD38 cells assessed as reduction in intracellular core HBV DNA level media replaced for every 2 to 3 days incubated for 7 days by Western blot analysis; format: functional, organism-based
Hepatitis B virus [2] = experiment: Antiviral activity against HBV infected in human HePAD38 cells assessed as inhibition of HBV capsid assembly by measuring secretion of particles containing HBV DNA at 5 uM incubated for 7 days by Southern blot analysis; format: functional, organism-based; settings: time 7.0 day
[3] = test system: Hepatitis B virus core protein; experiment: Selectivity index, ratio of CC50 for human HepG2 cells to IC50 for Hepatitis B virus core protein expressed in HEK293T cells; format: toxicity, cell-based; settings: read-out: Ratio CC50/IC50
Hepatitis B virus [4] = experiment: Antiviral activity against HBV infected in human HePAD38 cells assessed as reduction HBV capsid level at 5 uM media replaced for every 2 to 3 days incubated for 7 days by Western blot analysis; format: functional, organism-based; settings: time 7.0 day
Core antigen [5] = target: T1, Core antigen (Hepatitis B virus, UniProt Q03732); experiment: Inhibition of Hepatitis B virus core protein expressed in HBC cells derived from HEK293T cells assessed as reduction in HBcAg level incubated for 6 hrs by Nano-glo luciferase assay; format: cell-based; settings: read-out: IC50
T1 sequence (Q03732 whole entry): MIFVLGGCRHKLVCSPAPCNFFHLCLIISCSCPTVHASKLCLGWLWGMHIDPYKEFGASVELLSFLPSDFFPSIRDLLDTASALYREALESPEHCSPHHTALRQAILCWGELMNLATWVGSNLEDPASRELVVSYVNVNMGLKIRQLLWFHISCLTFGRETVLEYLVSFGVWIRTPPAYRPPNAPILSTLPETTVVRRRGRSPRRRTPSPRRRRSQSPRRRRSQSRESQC

Hepatitis B virus [6] = experiment: Antiviral activity against HBV infected in human HepAD38 cells assessed as inhibition of viral replication; format: functional, organism-based
Hepatitis B virus [7] = experiment: Antiviral activity against HBV infected in BALB/c mouse hydrodynamic injection model hydrodynamically injected with replication-competent HBV DNA plasmid assessed as reduction in HBV DNA copy numbers in plasma at 100 mg/kg, po administered twice daily for 14 days; format: functional, organism-based; settings: time 14.0 day
[8] = Toxicity in BALB/c mouse at 100 mg/kg, po administered twice daily for 14 days; format: organism-based; settings: in vivo, 336 h, time 14 day
Hepatitis B virus [9] = experiment: Antiviral activity against HBV infected in BALB/c mouse hydrodynamic injection model hydrodynamically injected with replication-competent HBV DNA plasmid assessed as decrease in HBsAG level in mouse serum at 100 mg/kg, po administered twice daily for 7 days by ELISA method; format: functional, organism-based; settings: time 7.0 day
Hepatitis B virus [10] = experiment: Antiviral activity against HBV infected in human HePAD38 cells assessed as decrease in HBV DNA level at 2.5 to 20 uM by q-PCR analysis; format: functional, organism-based; settings: dose 2.5-20 µM
Hepatitis B virus [11] = experiment: Antiviral activity against HBV infected in human HepAD38 cells assessed as inhibition of viral replication by Southern blot analysis; format: functional, organism-based
Core antigen [12] = target: T1, Core antigen; experiment: Inhibition of Hepatitis B virus core protein expressed in HBC cells derived from HEK293T cells assessed as reduction in HBcAg level […] incubated for 6 hrs by Nano-glo luciferase assay; format: cell-based
Hepatitis B virus [13] = experiment: Antiviral activity against HBV infected in human HepAD38 cells assessed as inhibition of viral replication incubated for 6 days by qPCR analysis; format: functional, organism-based; settings: HePAD38, 144 h

Compound | CC50 (HepG2) [nM] | EC50 (Hepatitis B virus [1]) [nM] | Activity (Hepatitis B virus [2]) | selectivity ratio [3] | Activity (Hepatitis B virus [4]) | IC50 (Core antigen [5]) [nM] | other results
COc1ccc(Sc2nc3ccccc3[nH]2)cc1 | 8130 | 2000 | Active | 7.53 | Active | 1080 | 
O=C(NCc1cc(F)c(F)c(F)c1)c1ccc(F)c(S(=O)(=O)N2CCC(O)CC2)c1 |  |  |  |  |  |  | EC50 (Hepatitis B virus [6]): 290 nM
COc1ccc(Sc2nc3ccccc3n2CCO)cc1 | 84300 | 2240 | Active | 165 | Active | 510 | Activity (Hepatitis B virus [7]): Active; Activity [8]: Non-Toxic; Activity (Hepatitis B virus [9]): Active; Activity (Hepatitis B virus [10]): Active
CCOC(=O)C1=C(CN2CCOCC2)NC(c2nccs2)=N[C@H]1c1ccc(F)cc1Br |  |  |  |  |  |  | EC50 (Hepatitis B virus [11]): 62.2 nM
COc1ccc(-c2nc3ccccc3[nH]2)cc1 | 10300 |  |  |  |  |  | IC50 (Core antigen [12]): Not Active
COc1ccc(Cc2nc3ccccc3[nH]2)cc1 | > 100000 | 11900 | Active | > 48.8 |  | 2050 | 
COc1ccc(Cc2nc3ccccc3n2C(C)=O)cc1 | 42800 | 16100 | Active | 27.2 |  | 1570 | 
COc1ccc(Cc2nc3ccccc3n2CCCCCO)cc1 | 29500 | 15900 | Active | 31.1 | Active | 950 | 
COC(=O)C1=C(C)NC(c2ncc(F)cc2F)=N[C@H]1c1ccc(F)cc1Cl |  |  |  |  |  |  | EC50 (Hepatitis B virus [6]): 24.3 nM
COc1ccc(Cc2nc3ccccc3s2)cc1 | 32600 |  |  |  |  |  | IC50 (Core antigen [12]): Not Active
COc1ccccc1/C(Br)=C(/NC(=O)c1ccc([N+](=O)[O-])cc1)C(=O)N1CCCCC1 |  |  |  |  |  |  | EC50 (Hepatitis B virus [13]): 200 nM
COc1ccc(Sc2nc3ccccc3n2CCCCCO)cc1 | > 100000 | 5700 | Active | > 167 | Active | 600 | 
